Laboratory results taken from ChEMBL document CHEMBL2375236, “Strategic use of conformational bias and structure based design to identify potent JAK3 inhibitors with improved selectivity against the JAK family and the kinome” (Bioorg Med Chem Lett, 2013).
≈ marks a conversion by molar mass, not a printed value. Blank lines part the entries; values can stand above or below the compound they belong to.

Legend:
[1] = target: T1, Tyrosine-protein kinase JAK1 (Homo sapiens, UniProt P23458)
[2] = target: T2, Tyrosine-protein kinase JAK3 (Homo sapiens, UniProt P52333)
T2 sequence (P52333 whole entry): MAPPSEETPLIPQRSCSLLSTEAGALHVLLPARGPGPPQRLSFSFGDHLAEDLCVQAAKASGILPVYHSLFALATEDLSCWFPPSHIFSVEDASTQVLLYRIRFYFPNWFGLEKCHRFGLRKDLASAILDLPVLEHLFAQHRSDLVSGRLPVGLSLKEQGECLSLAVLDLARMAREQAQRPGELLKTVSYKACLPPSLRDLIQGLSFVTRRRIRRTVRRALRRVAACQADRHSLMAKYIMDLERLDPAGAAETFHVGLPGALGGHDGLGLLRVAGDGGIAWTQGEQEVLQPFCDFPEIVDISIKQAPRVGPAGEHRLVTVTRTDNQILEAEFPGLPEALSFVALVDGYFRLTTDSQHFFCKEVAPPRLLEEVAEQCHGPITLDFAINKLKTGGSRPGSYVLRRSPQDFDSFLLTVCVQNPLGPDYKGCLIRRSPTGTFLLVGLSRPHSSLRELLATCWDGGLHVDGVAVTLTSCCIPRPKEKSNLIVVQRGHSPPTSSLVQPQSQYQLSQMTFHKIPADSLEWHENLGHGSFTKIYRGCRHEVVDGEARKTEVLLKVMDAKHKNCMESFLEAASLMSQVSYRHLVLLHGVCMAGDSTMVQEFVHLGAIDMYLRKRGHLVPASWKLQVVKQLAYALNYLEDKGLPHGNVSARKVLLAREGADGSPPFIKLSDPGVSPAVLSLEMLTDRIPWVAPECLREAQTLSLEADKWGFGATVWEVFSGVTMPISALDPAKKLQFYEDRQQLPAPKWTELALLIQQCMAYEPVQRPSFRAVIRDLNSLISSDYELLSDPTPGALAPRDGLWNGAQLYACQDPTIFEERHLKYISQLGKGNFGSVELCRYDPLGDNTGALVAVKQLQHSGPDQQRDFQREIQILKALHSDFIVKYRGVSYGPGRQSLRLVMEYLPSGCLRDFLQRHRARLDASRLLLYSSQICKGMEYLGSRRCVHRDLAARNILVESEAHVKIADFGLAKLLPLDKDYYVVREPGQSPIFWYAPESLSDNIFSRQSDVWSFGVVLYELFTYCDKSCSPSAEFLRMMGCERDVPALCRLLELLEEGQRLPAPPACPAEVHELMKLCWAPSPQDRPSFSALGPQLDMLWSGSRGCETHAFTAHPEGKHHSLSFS

[3] = target: Non-receptor tyrosine-protein kinase TYK2 (Homo sapiens, UniProt P29597)
Description: Binding affinity to TYK2 (unknown origin) by ligand displacement assay

[4] = target: T1, Tyrosine-protein kinase JAK1; remark: listed apart in the source
Description: Binding affinity to JAK1 (unknown origin) by ligand displacement assay

SMILES: Cn1nc(-c2cnc3[nH]cc(C(=O)N[C@@H](C(=O)N4CC(C#N)C4)C4CC4)c3n2)c2ccc(Cl)cc21
- IC50 [1]: 0.8 nM

SMILES: CCn1cc(-c2cnc3[nH]cc(C(=O)N[C@H](C)C(=O)N4CC(C#N)C4)c3n2)cn1
- IC50 [2]: 5.2 nM
- IC50 [1]: 23 nM
- solubility (physchem): 366 µg/mL (≈ 933 µM)

SMILES: C[C@@H](NC(=O)c1c[nH]c2ncc(-c3ncn4cc(F)ccc34)nc12)C(=O)N1CC(C#N)C1
- IC50 [1]: 16 nM
- solubility (physchem): 39 µg/mL (≈ 90.2 µM)

SMILES: CC[C@@H](NC(=O)c1c[nH]c2ncc(-c3nn(C)c4cc(Cl)ccc34)nc12)C(=O)N1CC(C#N)C1
- IC50 [1]: 4.6 nM
- solubility (physchem): < 1 µg/mL

SMILES: C[C@@H](NC(=O)c1c[nH]c2ncc(-n3ncc4cc(Cl)ccc43)nc12)C(=O)N1CC(C#N)C1
- IC50 [1]: 370 nM
- solubility (physchem): < 1 µg/mL

SMILES: C[C@@H](NC(=O)c1c[nH]c2ncc(-c3ncn4cc(F)cc(F)c34)nc12)C(=O)N1CC(C#N)C1
- IC50 [1]: 73 nM
- solubility (physchem): 31 µg/mL (≈ 68.8 µM)

SMILES: COc1cc(-c2cnc3[nH]cc(C(=O)N[C@H](C)C(=O)N4CC(C#N)C4)c3n2)cc(OC)c1OC
- IC50 [1]: 7.4 nM

SMILES: C[C@@H](NC(=O)c1c[nH]c2ncc(C3CC3)nc12)C(=O)N1CC(C#N)C1
- solubility (physchem): 277 µg/mL (≈ 819 µM)

SMILES: C[C@@H](NC(=O)c1c[nH]c2ncc(-c3nn(C)c4cc(Cl)cc(F)c34)nc12)C(=O)N1CC(C#N)C1
- solubility (physchem): < 1 µg/mL

SMILES: C[C@@H](NC(=O)c1c[nH]c2ncc(-c3cnc4cc(Cl)ccn34)nc12)C(=O)N1CC(C#N)C1
- IC50 [1]: 61 nM

SMILES: C[C@@H](NC(=O)c1c[nH]c2ncc(-c3cn(C)c4cc(Cl)ccc34)nc12)C(=O)N1CC(C#N)C1
- IC50 [1]: 1 nM
- solubility (physchem): < 1 µg/mL

The next lines start with the values.

- IC50 [1]: 10 nM
SMILES: C[C@@H](NC(=O)c1c[nH]c2ncc(-c3nn(C)c4cc(C5CC5)ccc34)nc12)C(=O)N1CC(C#N)C1

- IC50 [1]: 5.5 nM
SMILES: Cn1nc(-c2cnc3[nH]cc(C(=O)N[C@@H](C(=O)N4CC(C#N)C4)C(C)(C)C)c3n2)c2ccc(Cl)cc21

- IC50 [1]: 61 nM
SMILES: C[C@@H](NC(=O)c1c[nH]c2ncc(-c3nn(C)c4ccc(Cl)cc34)nc12)C(=O)N1CC(C#N)C1

- IC50 [1]: 17 nM
- solubility (physchem): < 1 µg/mL
SMILES: C[C@@H](NC(=O)c1c[nH]c2ncc(-c3nn(C)c4cc(F)ccc34)nc12)C(=O)N1CC(C#N)C1

- IC50 [1]: 31 nM
- solubility (physchem): < 1 µg/mL
- Kd [3]: 350 nM
- Kd [4]: 73 nM
SMILES: C[C@@H](NC(=O)c1c[nH]c2ncc(-c3nn(C)c4cc(Cl)ccc34)nc12)C(=O)N1CC(C#N)C1

- IC50 [1]: 38 nM
- solubility (physchem): < 1 µg/mL
SMILES: COc1ccc2c(-c3cnc4[nH]cc(C(=O)N[C@H](C)C(=O)N5CC(C#N)C5)c4n3)nn(C)c2c1

- IC50 [1]: 22 nM
SMILES: C[C@@H](NC(=O)c1c[nH]c2ncc(-c3nn(C)c4ccccc34)nc12)C(=O)N1CC(C#N)C1

- IC50 [1]: 12 nM
SMILES: C[C@@H](NC(=O)c1c[nH]c2ncc(-c3nn(C)c4cc(C(C)(C)C)ccc34)nc12)C(=O)N1CC(C#N)C1

- IC50 [1]: 51 nM
- solubility (physchem): < 1 µg/mL
SMILES: C[C@@H](NC(=O)c1c[nH]c2ncc(-c3nn(C)c4cc(C#N)ccc34)nc12)C(=O)N1CC(C#N)C1
